Values of other authors, collected in patent US20090304794A1, “CONTROLLED RELEASE FORMULATIONS OF PRAMIPEXOLE” (Supernus Pharmaceuticals, Inc., priority 2008, published 2009).
Where two headings read alike, the source gives them in different places.

terminal elimination half-life (elderly volunteers): about 12 hours | lower clearance rate in females than males (females versus males): 30% | terminal elimination half-life (healthy volunteers): about 8 hours | absolute bioavailability (BA) (in vivo): greater than 90%
Compound: CCCN[C@H]1CCc2nc(N)sc2C1 [pramipexole]
